Results from PMC5218480 (PLoS ONE, 2017).

System: MV-4-11 cells
Test: Gene expression microarray analysis (Affymetrix PrimeView) and GSEA
Format: cell-based, human
Parameters: RFU PODN (11730768_x_at) / Fold change /veh PODN (11730768_x_at) / RFU LINC00158 (11744669_a_at) / Fold change /veh LINC00158 (11744669_a_at) / RFU DUSP10 (11751237_a_at) / Fold change /veh DUSP10 (11751237_a_at) / RFU ID3 (11757404_x_at) / Fold change /veh ID3 (11757404_x_at) / RFU PLEKHG5 (11737974_s_at) / Fold change /veh PLEKHG5 (11737974_s_at) / RFU LRRC4B (11730491_at) / Fold change /veh LRRC4B (11730491_at) / RFU GIMAP4 (11747438_a_at) / Fold change /veh GIMAP4 (11747438_a_at) / RFU KRT8 (11758183_x_at) / Fold change /veh KRT8 (11758183_x_at) / RFU CNN1 (11734310_a_at) / Fold change /veh CNN1 (11734310_a_at) / RFU VPS37D (11726825_at) / Fold change /veh VPS37D (11726825_at) / RFU C10orf10 (11716522_x_at) / Fold change /veh C10orf10 (11716522_x_at) / RFU KIR2DL2 /// KIR2DL4 /// KIR2DL5A /// KIR2DL5B /// KIR2DS1 /// KIR2DS2 /// KIR2DS3 /// KIR2DS4 /// KIR3DL3 /// KIR3DL3 /// KIR3DS1 (11738374_at) / Fold change /veh KIR2DL2 /// KIR2DL4 /// KIR2DL5A /// KIR2DL5B /// KIR2DS1 /// KIR2DS2 /// KIR2DS3 /// KIR2DS4 /// KIR3DL3 /// KIR3DL3 /// KIR3DS1 (11738374_at) / RFU C1QL1 (11718748_at) / Fold change /veh C1QL1 (11718748_at) / RFU TMPRSS4 (11747572_a_at) / Fold change /veh TMPRSS4 (11747572_a_at) / RFU HAMP (11756126_x_at) / Fold change /veh HAMP (11756126_x_at) / RFU RNFT2 (11725882_a_at) / Fold change /veh RNFT2 (11725882_a_at) / RFU NR4A2 (11747474_a_at) / Fold change /veh NR4A2 (11747474_a_at) / RFU ABCC12 (11746883_a_at) / Fold change /veh ABCC12 (11746883_a_at) / RFU TMEM136 (11760407_x_at) / Fold change /veh TMEM136 (11760407_x_at) / RFU CLDN22 /// WWC2 (11732394_at) / Fold change /veh CLDN22 /// WWC2 (11732394_at) / RFU HLA-DPB1 (11760878_x_at) / Fold change /veh HLA-DPB1 (11760878_x_at) / RFU SPINT1 (11716480_a_at) / Fold change /veh SPINT1 (11716480_a_at) / RFU GAP43 (11754022_s_at) / Fold change /veh GAP43 (11754022_s_at) / RFU A4GNT (11735810_at) / Fold change /veh A4GNT (11735810_at) / RFU PRB3 (11715151_x_at) / Fold change /veh PRB3 (11715151_x_at) / RFU TUBB4B (11761932_at) / Fold change /veh TUBB4B (11761932_at) / RFU CAPN14 (11732068_a_at) / Fold change /veh CAPN14 (11732068_a_at) / RFU TMCC2 (11721928_a_at) / Fold change /veh TMCC2 (11721928_a_at) / RFU IRGQ (11745062_a_at) / Fold change /veh IRGQ (11745062_a_at) / RFU FAM174B (11720279_a_at) / Fold change /veh FAM174B (11720279_a_at) / RFU TMPRSS4 (11748680_a_at) / Fold change /veh TMPRSS4 (11748680_a_at) / RFU FAM212B (11763350_a_at) / Fold change /veh FAM212B (11763350_a_at) / RFU PLEKHG5 (11743358_a_at) / Fold change /veh PLEKHG5 (11743358_a_at) / RFU ZSCAN30 (11745921_a_at) / Fold change /veh ZSCAN30 (11745921_a_at) / RFU CMKLR1 (11741424_a_at) / Fold change /veh CMKLR1 (11741424_a_at) / RFU LOC101060620 /// MAPK8IP1 (11723275_at) / Fold change /veh LOC101060620 /// MAPK8IP1 (11723275_at) / RFU SPTSSB (11747773_x_at) / Fold change /veh SPTSSB (11747773_x_at) / RFU PRSS12 (11739890_at) / Fold change /veh PRSS12 (11739890_at) / RFU BIN1 (11741810_x_at) / Fold change /veh BIN1 (11741810_x_at) / RFU WNT11 (11732464_a_at) / Fold change /veh WNT11 (11732464_a_at) / RFU C10orf10 (11716521_a_at) / Fold change /veh C10orf10 (11716521_a_at) / RFU C5orf56 (11738089_at) / Fold change /veh C5orf56 (11738089_at) / RFU CYB561 (11721691_x_at) / Fold change /veh CYB561 (11721691_x_at) / RFU ANKRD19P (11752326_a_at) / Fold change /veh ANKRD19P (11752326_a_at) / RFU OR2T12 /// OR2T33 /// OR2T8 (11738714_s_at) / Fold change /veh OR2T12 /// OR2T33 /// OR2T8 (11738714_s_at) / RFU VCAN (11748164_a_at) / Fold change /veh VCAN (11748164_a_at) / RFU JSRP1 (11732532_at) / Fold change /veh JSRP1 (11732532_at) / RFU KRTAP10-11 (11738290_x_at) / Fold change /veh KRTAP10-11 (11738290_x_at) / RFU MYO3A (11730013_a_at) / Fold change /veh MYO3A (11730013_a_at) / RFU EBF3 (11725865_a_at) / Fold change /veh EBF3 (11725865_a_at) / RFU CAMK2N1 (11719241_x_at) / Fold change /veh CAMK2N1 (11719241_x_at) / RFU C5orf56 (11738088_a_at) / Fold change /veh C5orf56 (11738088_a_at) / RFU OLFML3 (11715873_a_at) / Fold change /veh OLFML3 (11715873_a_at) / RFU LOC100653217 /// NTM (11731650_a_at) / Fold change /veh LOC100653217 /// NTM (11731650_a_at) / RFU MAPK11 (11762145_a_at) / Fold change /veh MAPK11 (11762145_a_at) / RFU FIZ1 (11724087_x_at) / Fold change /veh FIZ1 (11724087_x_at) / RFU OASL (11726364_x_at) / Fold change /veh OASL (11726364_x_at) / RFU SOX15 (11748057_x_at) / Fold change /veh SOX15 (11748057_x_at) / RFU CD79A (11719716_a_at) / Fold change /veh CD79A (11719716_a_at) / RFU HIST1H1D (11736915_at) / Fold change /veh HIST1H1D (11736915_at) / RFU CASKIN2 (11723855_a_at) / Fold change /veh CASKIN2 (11723855_a_at) / RFU LOC730098 (11760151_x_at) / Fold change /veh LOC730098 (11760151_x_at) / RFU OR4N2 (11742367_at) / Fold change /veh OR4N2 (11742367_at) / RFU PRRT2 (11749266_a_at) / Fold change /veh PRRT2 (11749266_a_at) / RFU SNX32 (11753110_a_at) / Fold change /veh SNX32 (11753110_a_at) / RFU CDHR5 (11726645_a_at) / Fold change /veh CDHR5 (11726645_a_at) / RFU RCAN1 (11760418_a_at) / Fold change /veh RCAN1 (11760418_a_at) / RFU FAM167A (11723789_a_at) / Fold change /veh FAM167A (11723789_a_at) / RFU FAM26E (11764081_at) / Fold change /veh FAM26E (11764081_at) / RFU ISYNA1 (11749810_s_at) / Fold change /veh ISYNA1 (11749810_s_at) / RFU ACY1 (11761880_at) / Fold change /veh ACY1 (11761880_at) / RFU 11764098_at / Fold change /veh 11764098_at / RFU SAMD14 (11745864_x_at) / Fold change /veh SAMD14 (11745864_x_at) / RFU NPB (11741838_a_at) / Fold change /veh NPB (11741838_a_at) / RFU TMPRSS6 (11731388_a_at) / Fold change /veh TMPRSS6 (11731388_a_at) / RFU KRTAP10-2 (11738614_at) / Fold change /veh KRTAP10-2 (11738614_at) / RFU ARHGAP8 /// PRR5-ARHGAP8 (11727945_x_at) / Fold change /veh ARHGAP8 /// PRR5-ARHGAP8 (11727945_x_at) / RFU KRTAP5-7 /// NADSYN1 (11734609_at) / Fold change /veh KRTAP5-7 /// NADSYN1 (11734609_at) / RFU RASL12 (11751679_a_at) / Fold change /veh RASL12 (11751679_a_at) / RFU CDKN2B (11736163_a_at) / Fold change /veh CDKN2B (11736163_a_at) / RFU PRF1 (11729649_at) / Fold change /veh PRF1 (11729649_at) / RFU, ZNF638 /// ZNF638-IT1 / Fold change vs veh, ZNF638 /// ZNF638-IT1 / RFU, PANK3 / Fold change vs veh, PANK3 / RFU, SH3YL1 / Fold change vs veh, SH3YL1 / RFU, ZEB2 / Fold change vs veh, ZEB2 / RFU, NRIP1 / Fold change vs veh, NRIP1 / RFU, PTTG1IP / Fold change vs veh, PTTG1IP / RFU, CAPN2 / Fold change vs veh, CAPN2 / RFU, MED14 / Fold change vs veh, MED14 / RFU, SNORA58 / Fold change vs veh, SNORA58 / RFU, C1orf63 / Fold change vs veh, C1orf63 / RFU, LRRFIP1 / Fold change vs veh, LRRFIP1 / RFU, NDUFAF7 / Fold change vs veh, NDUFAF7 / RFU, SLC12A2 / Fold change vs veh, SLC12A2 / RFU, IBTK / Fold change vs veh, IBTK / RFU, ESF1 / Fold change vs veh, ESF1 / Fold change vs veh, TMEM50B / RFU, TAOK1 / Fold change vs veh, TAOK1 / RFU, ACBD3 / Fold change vs veh, ACBD3 / RFU, TMA16 / Fold change vs veh, TMA16 / RFU, RWDD3 / Fold change vs veh, RWDD3 / RFU, BCAT1 / Fold change vs veh, BCAT1 / RFU, EDEM3 / Fold change vs veh, EDEM3 / RFU, TMEM33 / Fold change vs veh, TMEM33 / RFU, WDR75 / Fold change vs veh, WDR75 / RFU, AHCTF1 / Fold change vs veh, AHCTF1 / RFU, TFRC / Fold change vs veh, TFRC / RFU, ZDHHC17 / Fold change vs veh, ZDHHC17 / RFU, NOM1 / Fold change vs veh, NOM1 / RFU, ARL8B / Fold change vs veh, ARL8B / RFU, ZBTB11 / Fold change vs veh, ZBTB11 / RFU, TAMM41 / Fold change vs veh, TAMM41 / RFU, KIAA1704 /// LOC100996395 / Fold change vs veh, KIAA1704 /// LOC100996395 / RFU, ING1 / Fold change vs veh, ING1 / RFU, TRMT61B / Fold change vs veh, TRMT61B / RFU, FUBP3 / Fold change vs veh, FUBP3 / RFU, TP53 / Fold change vs veh, TP53 / RFU, TNKS2 / Fold change vs veh, TNKS2 / RFU, ZFP14 / Fold change vs veh, ZFP14 / RFU, ACTR2 / Fold change vs veh, ACTR2 / RFU, PPP3R1 / Fold change vs veh, PPP3R1 / RFU, PIK3R1 / Fold change vs veh, PIK3R1 / RFU, HNRNPA1 / Fold change vs veh, HNRNPA1 / RFU, RNF170 / Fold change vs veh, RNF170 / RFU, ZNF28 / Fold change vs veh, ZNF28 / RFU, RNGTT / Fold change vs veh, RNGTT / RFU, OGT / Fold change vs veh, OGT / RFU, BRD1 / Fold change vs veh, BRD1 / RFU, MARS / Fold change vs veh, MARS / RFU, ZNF655 / Fold change vs veh, ZNF655 / RFU, FAHD1 / Fold change vs veh, FAHD1 / RFU, BDP1 / Fold change vs veh, BDP1 / RFU, LRRCC1 / Fold change vs veh, LRRCC1 / RFU, ARID1A / Fold change vs veh, ARID1A / RFU, ZNF146 / Fold change vs veh, ZNF146 / RFU, ZNF330 / Fold change vs veh, ZNF330 / RFU, GPN3 / Fold change vs veh, GPN3 / RFU, C9orf123 / Fold change vs veh, C9orf123 / RFU, N4BP2L2 / Fold change vs veh, N4BP2L2 / RFU, ARFIP1 / Fold change vs veh, ARFIP1 / RFU, FAM179B / Fold change vs veh, FAM179B / RFU, BCL10 / Fold change vs veh, BCL10 / RFU, UHRF1BP1L / Fold change vs veh, UHRF1BP1L / RFU, BET1 / Fold change vs veh, BET1 / RFU, CNOT2 / Fold change vs veh, CNOT2 / RFU, ZNF268 / Fold change vs veh, ZNF268 / Fold change vs veh, ZNF507 / RFU, DGCR2 / Fold change vs veh, DGCR2 / RFU, WDSUB1 / Fold change vs veh, WDSUB1 / Fold change vs veh, HSP90B1 /// MIR3652 / RFU, ADSS / Fold change vs veh, ADSS / RFU, GK / Fold change vs veh, GK / RFU, ZNF148 / Fold change vs veh, ZNF148 / RFU, TAF9 / Fold change vs veh, TAF9 / RFU, SLC1A5 / Fold change vs veh, SLC1A5 / RFU, SLMO2 / Fold change vs veh, SLMO2 / RFU, ABCC4 / Fold change vs veh, ABCC4 / RFU, LOC101060439 /// RAP1B / Fold change vs veh, LOC101060439 /// RAP1B / RFU, RFX7 / Fold change vs veh, RFX7 / RFU, GTPBP10 / Fold change vs veh, GTPBP10 / RFU, CNEP1R1 / Fold change vs veh, CNEP1R1 / RFU, BIVM-ERCC5 /// ERCC5 / Fold change vs veh, BIVM-ERCC5 /// ERCC5 / RFU, ILF3 / Fold change vs veh, ILF3 / RFU 11762660_at / Fold change /veh 11762660_at / RFU VCAN (11757783_s_at) / Fold change /veh VCAN (11757783_s_at) / RFU DDX43 (11728927_at) / Fold change /veh DDX43 (11728927_at) / RFU KRT8 (11758188_x_at) / Fold change /veh KRT8 (11758188_x_at) / RFU NKD1 (11759106_at) / Fold change /veh NKD1 (11759106_at) / RFU SRD5A1 (11742802_a_at) / Fold change /veh SRD5A1 (11742802_a_at) / RFU TPSAB1 /// TPSB2 (11721975_s_at) / Fold change /veh TPSAB1 /// TPSB2 (11721975_s_at) / RFU GSTM3 (11746129_a_at) / Fold change /veh GSTM3 (11746129_a_at) / RFU IL23R (11737362_x_at) / Fold change /veh IL23R (11737362_x_at) / RFU TMEM51 (11727254_a_at) / Fold change /veh TMEM51 (11727254_a_at) / RFU PIWIL2 (11732686_x_at) / Fold change /veh PIWIL2 (11732686_x_at) / RFU ORM1 (11744905_x_at) / Fold change /veh ORM1 (11744905_x_at) / RFU CCDC152 (11743942_at) / Fold change /veh CCDC152 (11743942_at) / RFU ECM1 (11717891_a_at) / Fold change /veh ECM1 (11717891_a_at) / RFU IL23R (11748794_a_at) / Fold change /veh IL23R (11748794_a_at) / RFU TNFAIP8L3 (11732012_x_at) / Fold change /veh TNFAIP8L3 (11732012_x_at) / RFU MBOAT4 (11741988_at) / Fold change /veh MBOAT4 (11741988_at) / RFU 11764193_at / Fold change /veh 11764193_at / RFU TMEM53 (11763286_at) / Fold change /veh TMEM53 (11763286_at) / RFU MAGEB2 (11727129_at) / Fold change /veh MAGEB2 (11727129_at) / RFU TMEM200A (11744735_a_at) / Fold change /veh TMEM200A (11744735_a_at) / RFU CCDC152 (11751479_a_at) / Fold change /veh CCDC152 (11751479_a_at) / RFU FAM211A (11726209_a_at) / Fold change /veh FAM211A (11726209_a_at) / RFU RGS16 (11746705_a_at) / Fold change /veh RGS16 (11746705_a_at) / RFU VCAN (11755009_s_at) / Fold change /veh VCAN (11755009_s_at) / RFU RHOB (11743442_s_at) / Fold change /veh RHOB (11743442_s_at) / RFU RGS16 (11720943_a_at) / Fold change /veh RGS16 (11720943_a_at) / RFU RGS16 (11720944_at) / Fold change /veh RGS16 (11720944_at) / RFU, VPS4B / Fold change vs veh, VPS4B / RFU, CREB1 / Fold change vs veh, CREB1 / RFU, DNAJC13 / Fold change vs veh, DNAJC13 / RFU, GNAQ / Fold change vs veh, GNAQ / RFU, CDK5R1 / Fold change vs veh, CDK5R1 / RFU, ZRANB3 / Fold change vs veh, ZRANB3 / RFU, CUL4A / Fold change vs veh, CUL4A / RFU, CCNY / Fold change vs veh, CCNY / RFU, UFL1 / Fold change vs veh, UFL1 / RFU, COG3 / Fold change vs veh, COG3 / RFU, DIAPH2 / Fold change vs veh, DIAPH2 / RFU, SKA2 / Fold change vs veh, SKA2 / RFU, AFF3 / Fold change vs veh, AFF3 / RFU, LMF1 / Fold change vs veh, LMF1 / RFU, IPO11 / Fold change vs veh, IPO11 / RFU, DFFB / Fold change vs veh, DFFB / RFU, FOXP1 / Fold change vs veh, FOXP1 / RFU, CARD8 / Fold change vs veh, CARD8 / RFU, STRN3 / Fold change vs veh, STRN3 / RFU, ADK / Fold change vs veh, ADK / RFU, RASSF2 / Fold change vs veh, RASSF2 / RFU, WIPF1 / Fold change vs veh, WIPF1 / RFU, LARP1B / Fold change vs veh, LARP1B / RFU, RASA1 / Fold change vs veh, RASA1 / RFU, RB1 / Fold change vs veh, RB1 / RFU, PPFIA1 / Fold change vs veh, PPFIA1 / RFU, MAT2A / Fold change vs veh, MAT2A / RFU, CCT5 / Fold change vs veh, CCT5 / RFU, WDR92 / Fold change vs veh, WDR92 / RFU, CUX1 / Fold change vs veh, CUX1 / RFU, TTC7A / Fold change vs veh, TTC7A / RFU, TMEM135 / Fold change vs veh, TMEM135 / RFU, DEPTOR / Fold change vs veh, DEPTOR / RFU, CPM / Fold change vs veh, CPM / RFU, DNAJB6 / Fold change vs veh, DNAJB6 / RFU, CACNA2D3 / Fold change vs veh, CACNA2D3 / RFU, DTX4 / Fold change vs veh, DTX4 / RFU, TFCP2 / Fold change vs veh, TFCP2 / RFU, GMCL1 /// GMCL1P1 / Fold change vs veh, GMCL1 /// GMCL1P1 / RFU, AEBP2 / Fold change vs veh, AEBP2 / RFU, SNHG1 /// SNORD22 /// SNORD25 /// SNORD26 /// SNORD27 /// SNORD28 /// SNORD29 /// SNORD31 / Fold change vs veh, SNHG1 /// SNORD22 /// SNORD25 /// SNORD26 /// SNORD27 /// SNORD28 /// SNORD29 /// SNORD31 / Fold change (Aza/veh), C12orf56 (ProbeSet 11735607_a_at) / Fold change (ACY-1035/veh), C12orf56 (ProbeSet 11735607_a_at) / Fold change (Aza/veh), FGFR1OP (ProbeSet 11751329_s_at) / Fold change (ACY-1035/veh), FGFR1OP (ProbeSet 11751329_s_at) / Fold change (Aza/veh), VPS36 (ProbeSet 11739960_a_at) / Fold change (ACY-1035/veh), VPS36 (ProbeSet 11739960_a_at) / RFU SYPL1 (11715823_x_at) / Fold change /veh SYPL1 (11715823_x_at) / RFU IGFBP7 (11715501_s_at) / Fold change /veh IGFBP7 (11715501_s_at) / RFU REEP3 (11722064_at) / Fold change /veh REEP3 (11722064_at) / RFU IGLL1 (11728026_x_at) / Fold change /veh IGLL1 (11728026_x_at): dose or concentration left out as unconfirmed
Details: ProbeSet 11741070_a_at; LIST B

## Nc1ccc(-c2cccs2)cc1NC(=O)c1ccc2c(c1)cc(C1CC1)n2CCN1CCOCC1 [ACY-1035]
  RFU, ZNF146: 2312.59 RFU
